PMC6930524, “A Prospective Repurposing of Dantrolene as a Multitarget Agent for Alzheimer’s Disease” (Molecules, 2019)

Tests used:
[1] = target: T1, carnitine/acylcarnitine carrier (CAC) in intact rat liver mitochondria (Rattus norvegicus, UniProt P97521); assay: [3H]-carnitine uptake (CAC transport) in intact mitochondria; type: biochemical; conditions: 50 μM, after 120 min, 0.05 mM [3H]-carnitine
T1 construct: The measurement of CAC activity in isolated entire mitochondria has been performed as previously described; from tissue; host or cells: rat liver mitochondria (intact organelles)
T1 sequence (P97521 1-301): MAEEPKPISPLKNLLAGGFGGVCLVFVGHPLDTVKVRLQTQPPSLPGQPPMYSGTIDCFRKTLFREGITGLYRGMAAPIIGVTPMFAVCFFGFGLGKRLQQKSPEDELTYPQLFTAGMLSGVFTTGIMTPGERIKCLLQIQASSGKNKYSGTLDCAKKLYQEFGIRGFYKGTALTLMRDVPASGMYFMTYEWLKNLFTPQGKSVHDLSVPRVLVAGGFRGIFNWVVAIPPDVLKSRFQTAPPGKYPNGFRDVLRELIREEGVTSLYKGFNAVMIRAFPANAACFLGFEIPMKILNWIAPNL
Description: The purification of crude rat mitochondria and the measurement of CAC transport activity are described in Materials and Methods. The uptake of carnitine was started by adding 0.05 mM [^3H]-carnitine in the presence or absence of 50 μM DAN (dissolved in 1:1 DMSO/H2O). The transport activity was inhibited at various times by adding cold 1 mM N-ethylmaleimide (NEM) in a buffer containing 150 mM sucrose, 50 mM TRIS-HCl, 50 mM KCl. […] Addition of DAN to intact mitochondria induced an increase of transport function up to 41% after 120 min.
In order to isolate crude mitochondria from rat liver, a standard protocol was performed, involving cell destruction by mechanical stress, isolation by differential centrifugation in order to eliminate various subcellular contaminations, and purification by centrifugation on colloidal silica Percoll 30% gradient. The average purity of the mitochondrial preparation was monitored by measuring the specific activity of alkaline phosphatase (EC 3.1.3.1). The specific activity of alkaline phosphatase, in the mitochondria preparations was measured at 37 °C as substrate consumed per min per mg protein [55]. […] The purified mitochondria (5 mg/100 μL) were incubated for 2 h with 20 mM carnitine, washed three times with a buffer containing 150 mM sucrose, 50 mM TRIS-HCl, 50 mM KCl, and the transport activity was measured. […]

SH-SY5Y cells = assay: DCF-DA assay of dopamine-induced ROS production; type: cell-based; conditions: dopamine 10 nM insult, compound 100 nM
Description: In order to get further information about the potential neuroprotective effects exerted by DAN, we tested it in a 2′,7′-dichlorofluorescin diacetate (DCF-DA) fluorescence-based assay, measuring the production of ROS induced by dopamine in cultured SH-SY5Y cells. Immortalized neuroblastoma cells are a widely used model for neuroprotection assays, while dopamine at a concentration of 10 nM acts as an inducer of oxidative stress, being metabolized by MAOs to form hydrogen peroxide. Once hydrolyzed and oxidized, DCF acts as the fluorescing probe of the OS state of cells. In the presence of an antioxidant, or even of a MAO inhibitor, ROS burden is lowered and DCF fluorescence decreased. […] Its activity is completely superimposable to that of phenelzine, a nonselective MAO inhibitor used as a positive control in Figure 5B [41]. […]
ROS production in SH-SY5Y cell line was detected using Cellular Reactive Oxygen Species Detection Assay Kit ([…]; Abcam, Cambridge, UK). […] After washing, the fluorescence was read immediately, and the readings were taken every 15 min in a 60-min time interval. Fluorescence signal at 535 nm (excitation at 485 nm) was measured using Tecan Infinite M1000 Pro (Tecan, Mannedorf, Switzerland).

hMAO A = target: T2, hMAO A (Homo sapiens, UniProt P21397); assay: biochemical
T2 sequence (P21397 1-527): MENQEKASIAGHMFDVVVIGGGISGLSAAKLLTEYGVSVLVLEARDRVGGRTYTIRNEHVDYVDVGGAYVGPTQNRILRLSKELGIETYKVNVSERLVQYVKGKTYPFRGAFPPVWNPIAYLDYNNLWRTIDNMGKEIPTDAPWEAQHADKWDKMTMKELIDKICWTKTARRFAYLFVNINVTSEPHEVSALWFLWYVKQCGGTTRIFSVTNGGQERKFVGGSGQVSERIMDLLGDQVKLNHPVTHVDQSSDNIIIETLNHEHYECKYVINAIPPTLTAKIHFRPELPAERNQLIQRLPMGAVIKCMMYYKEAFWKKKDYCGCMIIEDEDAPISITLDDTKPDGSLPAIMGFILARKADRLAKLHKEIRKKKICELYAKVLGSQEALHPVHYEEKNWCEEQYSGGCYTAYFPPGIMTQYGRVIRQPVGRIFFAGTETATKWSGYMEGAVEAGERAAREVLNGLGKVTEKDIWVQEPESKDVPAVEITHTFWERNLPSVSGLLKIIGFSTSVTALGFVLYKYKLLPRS
Description: Selectivity over the corresponding isoforms hMAO A and butyrylcholinesterase (hBChE) was also verified.
An already published protocol using human recombinant monoamine oxidases A (250 U/mg) and B (59 U/mg; microsomes from baculovirus infected insect cells) [29] was used by applying a 96-well plate technique (instrument Infinite M1000 Pro, Tecan, Cernusco s.N., Italy). Briefly, compounds at a concentration ranging from 30 to 0.01 μM were preincubated 20 min at 37 °C with substrate kynuramine, in phosphate buffer 8.0 made 0.39 osmolar with KCl. After addition of enzyme and further 30 min of incubation, NaOH was added and the fluorescence read at 310/400 excitation/emission wavelength. Experiments were performed in duplicates in black, flat-bottomed polystyrene 96-well microtiter plates (Greiner Bio-One GmbH, Frickenhausen, Germany). […] Inhibition values and kinetics were calculated by means of Prism (GraphPad Prism version 5.00 for Windows, GraphPad Software, San Diego, CA, USA).

## O=C1CN(/N=C/c2ccc(-c3ccc([N+](=O)[O-])cc3)o2)C(O)=N1 [Dantrolene]
[1]
  increase of CAC transport function in intact mitochondria: 41%
SH-SY5Y cells
  reduction of ROS oxidation of DCF: very effective
hMAO A
  IC50: 14 ± 1 µM
